Measured values as given in ChEMBL document CHEMBL3797052 (Eur J Med Chem, 2016).

tested on: not listed separately; assay: Antiproliferative activity against human SKOV3 cells assessed as growth inhibition after 48 hrs by sulforhodamine B assay; format: functional; conditions: SK-OV-3, 48 h

Row | SMILES | GI50 | TGI
1 | CNC(=O)c1cc(Oc2ccc3nc(NC(=O)c4cc(C(F)(F)F)cc(C(F)(F)F)c4)sc3c2)ccn1 | 2.52 µM | 7.98 µM

same assay, conditions: SK-OV-3, 48 h, read-out: LC50 (the source's name)

Row | SMILES | CC50
2 | CNC(=O)c1cc(Oc2ccc3nc(NC(=O)c4cc(C(F)(F)F)cc(C(F)(F)F)c4)sc3c2)ccn1 | 73.7 µM

tested on: HT-29; assay: Antiproliferative activity against human HT-29 cells assessed as cell growth at 10^-7 M after 48 hrs by sulforhodamine B assay; format: functional; conditions: HT-29, 48 h, read-out: Activity

Row | SMILES | growth at 0.1 µM
3 | CNC(=O)c1cc(Oc2ccc3nc(NC(=O)c4cc(C(F)(F)F)cc(C(F)(F)F)c4)sc3c2)ccn1 | 107%

tested on: not listed separately; assay: Antiproliferative activity against human MOLT4 cells assessed as cell growth at 10^-8 M after 48 hrs by sulforhodamine B assay; format: functional; conditions: MOLT-4, 48 h, read-out: Activity

Row | SMILES | growth at 0.01 µM
4 | CNC(=O)c1cc(Oc2ccc3nc(NC(=O)c4cc(C(F)(F)F)cc(C(F)(F)F)c4)sc3c2)ccn1 | 86%

tested on: SK-MEL-2; assay: Antiproliferative activity against human SK-MEL-2 cells assessed as cell growth at 10^-6 M after 48 hrs by sulforhodamine B assay; format: functional; conditions: SK-MEL-2, 48 h, read-out: Activity

Row | SMILES | growth at 1 µM
5 | CNC(=O)c1cc(Oc2ccc3nc(NC(=O)c4cc(C(F)(F)F)cc(C(F)(F)F)c4)sc3c2)ccn1 | 90%

tested on: A498; assay: Antiproliferative activity against human A498 cells assessed as growth inhibition after 48 hrs by sulforhodamine B assay; format: functional; conditions: A498, 48 h

Row | SMILES | GI50 | LC50 (concentration killing 50% of cells) | TGI
6 | CNC(=O)c1cc(Oc2ccc3nc(NC(=O)c4cc(C(F)(F)F)cc(C(F)(F)F)c4)sc3c2)ccn1 | 1.45 µM | 30.9 µM | 4.51 µM

tested on: SN12C; assay: Antiproliferative activity against human SN12C cells assessed as growth inhibition after 48 hrs by sulforhodamine B assay; format: functional; conditions: not given

Row | SMILES | GI50 | TGI
7 | CNC(=O)c1cc(Oc2ccc3nc(NC(=O)c4cc(C(F)(F)F)cc(C(F)(F)F)c4)sc3c2)ccn1 | 3.22 µM | 12.5 µM

same assay, conditions: read-out: LC50 (the source's name)

Row | SMILES | CC50
8 | CNC(=O)c1cc(Oc2ccc3nc(NC(=O)c4cc(C(F)(F)F)cc(C(F)(F)F)c4)sc3c2)ccn1 | 89.8 µM

tested on: not listed separately; assay: Antiproliferative activity against human SKOV3 cells assessed as cell growth at 10^-6 M after 48 hrs by sulforhodamine B assay; format: functional; conditions: SK-OV-3, 48 h, read-out: Activity

Row | SMILES | growth at 1 µM
9 | CNC(=O)c1cc(Oc2ccc3nc(NC(=O)c4cc(C(F)(F)F)cc(C(F)(F)F)c4)sc3c2)ccn1 | 90%

tested on: M14; assay: Antiproliferative activity against human M14 cells assessed as cell growth at 10^-4 M after 48 hrs by sulforhodamine B assay; format: functional; conditions: M14, 48 h, read-out: Activity

Row | SMILES | growth at 100 µM
10 | CNC(=O)c1cc(Oc2ccc3nc(NC(=O)c4cc(C(F)(F)F)cc(C(F)(F)F)c4)sc3c2)ccn1 | -38%

tested on: A549; assay: Antiproliferative activity against human A549/ATCC cells assessed as growth inhibition after 48 hrs by sulforhodamine B assay; format: functional; conditions: A549, 48 h

Row | SMILES | GI50 | TGI
11 | CNC(=O)c1cc(Oc2ccc3nc(NC(=O)c4cc(C(F)(F)F)cc(C(F)(F)F)c4)sc3c2)ccn1 | 3.99 µM | 14.6 µM

same assay, conditions: A549, 48 h, read-out: LC50 (the source's name)

Row | SMILES | CC50
12 | CNC(=O)c1cc(Oc2ccc3nc(NC(=O)c4cc(C(F)(F)F)cc(C(F)(F)F)c4)sc3c2)ccn1 | 61.2 µM

tested on: not listed separately; assay: Antiproliferative activity against human HOP62 cells assessed as cell growth at 10^-4 M after 48 hrs by sulforhodamine B assay; format: functional; conditions: HOP-62, 48 h, read-out: Activity

Row | SMILES | growth at 100 µM
13 | CNC(=O)c1cc(Oc2ccc3nc(NC(=O)c4cc(C(F)(F)F)cc(C(F)(F)F)c4)sc3c2)ccn1 | -71%

tested on: NCI-H522; assay: Antiproliferative activity against human NCI-H522 cells assessed as cell growth at 10^-7 M after 48 hrs by sulforhodamine B assay; format: functional; conditions: NCI-H522, 48 h, read-out: Activity

Row | SMILES | growth at 0.1 µM
14 | CNC(=O)c1cc(Oc2ccc3nc(NC(=O)c4cc(C(F)(F)F)cc(C(F)(F)F)c4)sc3c2)ccn1 | 109%

tested on: not listed separately; assay: Antiproliferative activity against human HCT15 cells assessed as cell growth at 10^-6 M after 48 hrs by sulforhodamine B assay; format: functional; conditions: HCT-15, 48 h, read-out: Activity

Row | SMILES | growth at 1 µM
15 | CNC(=O)c1cc(Oc2ccc3nc(NC(=O)c4cc(C(F)(F)F)cc(C(F)(F)F)c4)sc3c2)ccn1 | 96%

tested on: not listed separately; assay: Antiproliferative activity against human HCC2998 cells assessed as cell growth at 10^-4 M after 48 hrs by sulforhodamine B assay; format: functional; conditions: HCC 2998, 48 h, read-out: Activity

Row | SMILES | growth at 100 µM
16 | CNC(=O)c1cc(Oc2ccc3nc(NC(=O)c4cc(C(F)(F)F)cc(C(F)(F)F)c4)sc3c2)ccn1 | -60%

tested on: NCI-H522; assay: Antiproliferative activity against human NCI-H522 cells assessed as cell growth at 10^-8 M after 48 hrs by sulforhodamine B assay; format: functional; conditions: NCI-H522, 48 h, read-out: Activity

Row | SMILES | growth at 0.01 µM
17 | CNC(=O)c1cc(Oc2ccc3nc(NC(=O)c4cc(C(F)(F)F)cc(C(F)(F)F)c4)sc3c2)ccn1 | 90%

tested on: M14; assay: Antiproliferative activity against human M14 cells assessed as cell growth at 10^-8 M after 48 hrs by sulforhodamine B assay; format: functional; conditions: M14, 48 h, read-out: Activity

Row | SMILES | growth at 0.01 µM
18 | CNC(=O)c1cc(Oc2ccc3nc(NC(=O)c4cc(C(F)(F)F)cc(C(F)(F)F)c4)sc3c2)ccn1 | 99%

tested on: SR; assay: Antiproliferative activity against human SR cells assessed as cell growth at 10^-4 M after 48 hrs by sulforhodamine B assay; format: functional; conditions: read-out: Activity

Row | SMILES | growth at 100 µM
19 | CNC(=O)c1cc(Oc2ccc3nc(NC(=O)c4cc(C(F)(F)F)cc(C(F)(F)F)c4)sc3c2)ccn1 | -23%

tested on: CCRF-CEM; assay: Antiproliferative activity against human CCRF-CEM cells assessed as cell growth at 10^-6 M after 48 hrs by sulforhodamine B assay; format: functional; conditions: read-out: Activity

Row | SMILES | growth at 1 µM
20 | CNC(=O)c1cc(Oc2ccc3nc(NC(=O)c4cc(C(F)(F)F)cc(C(F)(F)F)c4)sc3c2)ccn1 | 93%

target: Voltage-gated inwardly rectifying potassium channel KCNH2 (Homo sapiens, UniProt Q12809); assay: Inhibition of human ERG assessed as reduction in channel current by automated patch-clamp electrophysiology assay; conditions: not given
Sequence (Q12809 whole entry): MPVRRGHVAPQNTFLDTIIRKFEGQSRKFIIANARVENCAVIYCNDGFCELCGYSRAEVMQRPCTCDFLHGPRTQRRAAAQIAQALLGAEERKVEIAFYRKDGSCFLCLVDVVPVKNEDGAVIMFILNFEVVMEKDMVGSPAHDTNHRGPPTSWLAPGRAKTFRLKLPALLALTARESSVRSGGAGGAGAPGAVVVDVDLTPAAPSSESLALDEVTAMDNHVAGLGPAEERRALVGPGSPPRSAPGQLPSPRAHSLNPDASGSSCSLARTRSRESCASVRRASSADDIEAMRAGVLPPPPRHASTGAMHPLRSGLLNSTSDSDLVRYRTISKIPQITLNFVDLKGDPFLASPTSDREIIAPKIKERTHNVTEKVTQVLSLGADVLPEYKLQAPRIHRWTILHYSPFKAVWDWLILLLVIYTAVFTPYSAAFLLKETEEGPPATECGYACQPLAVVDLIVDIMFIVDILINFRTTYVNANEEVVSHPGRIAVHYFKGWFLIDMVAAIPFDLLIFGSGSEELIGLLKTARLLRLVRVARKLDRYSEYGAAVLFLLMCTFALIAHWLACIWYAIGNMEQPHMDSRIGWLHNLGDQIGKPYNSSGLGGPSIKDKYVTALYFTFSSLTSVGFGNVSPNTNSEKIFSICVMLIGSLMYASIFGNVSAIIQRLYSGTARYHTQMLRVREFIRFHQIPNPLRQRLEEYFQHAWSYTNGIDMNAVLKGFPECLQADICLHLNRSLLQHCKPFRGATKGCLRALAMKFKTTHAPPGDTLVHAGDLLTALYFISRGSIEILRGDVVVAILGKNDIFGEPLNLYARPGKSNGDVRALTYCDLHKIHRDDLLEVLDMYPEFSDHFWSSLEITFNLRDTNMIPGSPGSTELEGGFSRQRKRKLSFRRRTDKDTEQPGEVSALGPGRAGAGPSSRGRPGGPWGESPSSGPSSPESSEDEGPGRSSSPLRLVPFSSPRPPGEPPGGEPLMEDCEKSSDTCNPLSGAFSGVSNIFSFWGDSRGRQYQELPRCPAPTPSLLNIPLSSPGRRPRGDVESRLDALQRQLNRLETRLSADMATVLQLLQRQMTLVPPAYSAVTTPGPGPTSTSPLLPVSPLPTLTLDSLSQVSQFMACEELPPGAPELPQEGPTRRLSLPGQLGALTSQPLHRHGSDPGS

Row | SMILES | IC50
21 | CNC(=O)c1cc(Oc2ccc3nc(NC(=O)c4cc(C(F)(F)F)cc(C(F)(F)F)c4)sc3c2)ccn1 | 48.4 µM

tested on: A498; assay: Antiproliferative activity against human A498 cells assessed as cell growth at 10^-6 M after 48 hrs by sulforhodamine B assay; format: functional; conditions: A498, 48 h, read-out: Activity

Row | SMILES | growth at 1 µM
22 | CNC(=O)c1cc(Oc2ccc3nc(NC(=O)c4cc(C(F)(F)F)cc(C(F)(F)F)c4)sc3c2)ccn1 | 66%
